Data set [1] can be described thus: Metabolic stability in rat liver microsomes. The data set is classed as in vitro ADME, Sprague–Dawley rats. The following applies: for remaining at 10 min, 0.49 µM / remaining at 20 min, 0.49 µM / remaining at 0.5 h, 0.49 µM / remaining at 40 min, 0.49 µM / remaining at 50 min, 0.49 µM / remaining at 1 h, 0.49 µM / half-life at 0.49 µM: male, Sprague-Dawley, pooled rat liver microsomes; for remaining at 10 min, 0.49 µM / remaining at 20 min, 0.49 µM / remaining at 0.5 h, 0.49 µM / remaining at 40 min, 0.49 µM / remaining at 50 min, 0.49 µM / remaining at 1 h, 0.49 µM / CLint(liver) Rat: rat liver microsomes; for remaining at 0.5 h, 0.49 µM: 30 min; for remaining at 1 h, 0.49 µM: 60 min, read-out: Remaining (%, T = 60min) Rat; for half-life at 0.49 µM: rat, read-out: T1/2 Rat. As for the experimental part: (§1) The metabolic stability is an important focus for further compound optimisation. Compounds 7f, 7i, and AB928 were chosen to evaluate the stability in rat liver microsomes and human liver microsomes. For the microsomal metabolic experiment, 7-ethoxycoumarin (7-EC) was used as a control. As shown in Table 4 (see Supporting information for raw data), the CLint(liver) of 7-EC in rats and humans was 10.0 and 9.0 ml/min/g liver, respectively, indicating the experimental test system was reliable.
(§2) Metabolic stabilities of compounds 7f, 7i, and AB928 in liver microsomes were studied with pooled human (male) liver microsomes solution (20 mg/ml) and male Sprague–Dawley rats pooled liver microsomes solution (20 mg/ml) purchased from Research Institute for Liver Diseases (Shanghai) Co. Ltd. Both liver microsomes solutions (140 μl) were diluted by 3948 μl of water and 280 μl of phosphate buffered saline. The assay procedure: 640 μl of diluted liver microsomes solution was added to a solution of compound working solution (16 μl, 25 μM in DMSO) and the mixed solution was incubated at 37 °C for 5 min. Then 160 μl of NADPH generating system was added and take out 100 μl from the mixed solution was added 200 μl of acetonitrile solution to stop the reaction at the set incubation time (0 min, 10 min, 20 min, 30 min, 40 min, 50 min, and 60 min). All stopped reaction solutions were vortex mixed (3 min) and centrifuged (10,000 rpm, 4 °C for 10 min). Then 50 μl of the supernatant was analysed by UPLC-MS/MS system (details of the analytical method see Supporting information). […]
(§3) 8. Metabolic stability in human and rat liver microsomes
(§4) Metabolic stabilities of compounds 7f, 7i and AB928 in liver microsomes were studied with pooled human (male) liver microsomes solution (20 mg/mL) and male Sprague - Dawley rats pooled liver microsomes solution (20 mg/mL) purchased from Research Institute for Liver Diseases (Shanghai) Co. Ltd. Both liver microsomes solutions (140 μL) were diluted by 3948 μL of water and 280 μL of phosphate buffered saline. The assay procedure: 640 μL of diluted liver microsomes solution was added to a solution of compound working solution (16 μL, 25 μM in DMSO) and the mixed solution was […]
(§5) (1 picture or pasted object on this page, not shown here) […]
(§6) incubated at 37 ℃ for 5 min. Then 160 μL of NADPH generating system was added and take out 100 μL from the mixed solution was added 200 μL of acetonitrile solution to stop the reaction at the set incubation time (0 min, 10 min, 20 min, 30 min, 40 min, 50 min, and 60 min). All stopped reaction solutions were vortex mixed (3 min) and centrifuged (10000 rpm, 4 ℃ for 10 min). Then 50 μL of the supernatant was analyzed […]
(§7) 8.2 Chromatography and mass spectrometry conditions
(§8) UPLC was performed using an […] UPLC system (Waters, Milford, MA, […]
(§9) USA). Separation was achieved on a Waters BEH C18 column(100 mm × 2.1 mm， 1.7 μm) at 40 ℃. The injection volume of the sample solution was 5 μL. The mobile phase consisted of water (0.1% formic acid and ammonium acetate) and acetonitrile solution (20:80, v/v) at a flow rate of 0.4 mL/min within a running time of 6 min. Mass spectrometric analysis was performed on a Waters Xevo TQ-S triple quadrupole instrument using electrospray ionization in positive mode. Quantification was performed using multiple reaction monitoring (MRM) mode to monitor precursor-product ion transitions (Table S1).
(§10) Table S1. Conditions of MRM Detection. […]
(§11) Table S2. Raw data of metabolic stability in human and rat liver microsomes. […]
(§12) (min) Hum Rat Hum Rat Hum Rat Hum Rat
(§13) 9. Analytical method of pharmacokinetics assay
(§14) Animal experiments were performed according to the institutional ethical guidelines on animal care and approved by the Institute Animal Care and Use Committee at Binzhou […]
(§15) Female Bal b/c mice (sourced from Jinan Pengyue Experimental Animal Breeding […]
For orientation: Liver microsomes are vesicles of endoplasmic reticulum, rich in cytochrome P450 enzymes.

The next data set has as its target T1, human A2B AR (Homo sapiens, UniProt P29275).
T1 sequence (P29275 1-332): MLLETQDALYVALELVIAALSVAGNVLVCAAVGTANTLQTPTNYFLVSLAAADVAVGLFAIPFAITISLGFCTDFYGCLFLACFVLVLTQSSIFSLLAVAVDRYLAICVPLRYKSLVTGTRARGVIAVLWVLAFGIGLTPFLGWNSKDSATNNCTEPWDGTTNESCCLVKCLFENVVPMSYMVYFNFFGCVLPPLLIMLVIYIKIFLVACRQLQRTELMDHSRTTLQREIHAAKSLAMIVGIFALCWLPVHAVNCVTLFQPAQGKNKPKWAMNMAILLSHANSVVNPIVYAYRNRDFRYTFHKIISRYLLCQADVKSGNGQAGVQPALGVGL
The data set can be described thus: cAMP functional assay in CHO-K1/ADORA2b/Gα15 cells (NECA-stimulated, HTRF). The following applies: for inhibition at 0.1 µM: compound at 100 nM, relative to ZM241385 at 1 μM, read-out: hA2B AR (%) inhibition of cAMP, 100 nM. The data set is classed as cell-based. A general note: TR-FRET usually uses a lanthanide donor and a delayed reading to cut background.

The target in the next data set is human A2A AR (Homo sapiens, UniProt P29274). The data set can be described thus: A2A AR radioligand binding assay ([3H]-ZM241385, HEK-293 cell membranes). The conditions noted are these: hA2A AR, HEK-293 membranes, [3H]-ZM241385; mean ± SEM; read-out: Radioligand binding assays IC50. Here is the method: We further tested the IC50 values of compounds 7f, 7i, 17, 22, and AB928 in inhibiting the cAMP production of CHO cells expressing hA2A AR or hA2B AR (Table 2). […] In addition, the competitive binding experiments of compounds 7f, 7i, and AB928 were performed using membrane preparation of HEK-293 cells expressing human A2A AR (Table 3).
human A2A AR, sequence (P29274 whole entry): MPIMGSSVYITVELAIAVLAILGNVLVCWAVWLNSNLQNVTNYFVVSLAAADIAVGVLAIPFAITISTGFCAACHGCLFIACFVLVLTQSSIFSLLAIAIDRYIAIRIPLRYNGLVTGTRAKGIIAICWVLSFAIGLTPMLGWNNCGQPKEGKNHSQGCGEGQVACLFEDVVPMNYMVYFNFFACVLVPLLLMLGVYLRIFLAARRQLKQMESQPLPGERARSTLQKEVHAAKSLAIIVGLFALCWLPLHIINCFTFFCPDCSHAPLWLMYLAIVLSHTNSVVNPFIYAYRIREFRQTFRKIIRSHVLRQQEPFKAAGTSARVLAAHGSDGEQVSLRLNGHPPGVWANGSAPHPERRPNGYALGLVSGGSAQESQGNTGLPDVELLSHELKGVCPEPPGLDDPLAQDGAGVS
The target compounds were tested to evaluate their affinity for the A2A AR on HEK-293 cell membranes expressing human A2A AR. [^3H]-ZM241385 was used as a radioligand. The assay buffer (50 mM Tris-HCl, pH 7.4; 10 mM MgCl2; 1 mM EDTA; 1 μg/ml adenosine deaminase), wash buffer (50 mM Tris-HCl, pH 7.4; 154 mM NaCl), and 0.5% PEI solution were prepared and stored at 4 °C for use. The affinities were tested following the procedure reported by Hu et al[4].

A short description of data set [2]: Metabolic stability in human liver microsomes. The data set is classed as in vitro ADME. As for the experimental part:
as §1, §2, §3, §4, §5, §6, §7, §8, §9, §10, §11, §12, §13, §14, §15

Procedure for human A2B AR: In the cAMP assay, CHO-K1/ADORA2A/Gα15 cells expressing human A2A AR and CHO-K1/ADORA2b/Gα15 cells expressing human A2B AR were activated by 5′-(N-ethylcarboxamido)adenosine (NECA) and triggered the accumulation of intracellular cAMP concentration.
CHO-K1/ADORA2A/Gα15 cells expressing human A2A AR and CHO-K1/ADORA2b/Gα15 cells expressing human A2B AR were both constructed by Genscript Biotech Corporation. […] The test stock solutions were diluted with different gradients for use. The procedure was exemplified by the cAMP functional assay on the A2A receptor: 10,000 cells/well of CHO-K1/ADORA2A/Gα15 were seeded in a 384-well plate in 20 μl of assay buffer. […] Then, 10 μl of detection reagent (cAMP-d2 and anti-cAMP-Eu3+) was added into each well of the plate and incubated at room temperature for 1 h.

Consider `Cc1c(C#N)cccc1-c1cc(-c2cn(Cc3cccc(C#N)n3)nn2)nc(N)n1` [Compound 7f, 6-((4-(2-Amino-6-(3-cyano-2-methylphenyl)pyrimidin-4-yl)-1H-1,2,3-triazol-1-yl)methyl)picolinonitrile], for which, in data set [1], the share remaining at 10 min, 0.49 µM worked out at 84.7%; the amount remaining at 20 min, 0.49 µM was found to be 88%; the amount remaining at 0.5 h, 0.49 µM was determined as 77.2%; the share remaining at 40 min, 0.49 µM is 73.7%. In addition, in data set [1], the amount remaining at 50 min, 0.49 µM stood at 64.2%; the amount remaining at 1 h, 0.49 µM turned out to be 64%; the half-life at 0.49 µM stood at 1.56 h; the “CLint(liver) Rat” value was 0.78 mL/min/g. At human A2B AR (CHO-K1, compound at 10 nM, mean ± SEM, read-out: hA2B AR percentage of inhibition (I%) of cAMP, 10 nM (converted)), the inhibition (commonly the drop in the measured response relative to a control, in per cent) at 0.01 µM was 10.8%. Moreover, the inhibition at 0.1 µM on human A2B AR (CHO-K1, mean ± SEM) turned out to be 102.6 ± 0.24%. The IC50 (commonly the point on the concentration scale where inhibition reaches its midpoint) at human A2A AR is 158 ± 56.4 nM. In data set [2], the “metabolism on human liver microsomes (in words)” value is recorded as “hardly metabolised on human liver microsomes”. In addition, in data set [2] (male, human, microsomes), the share remaining at 10 min, 0.49 µM was found to be 96.3%; the amount remaining at 20 min, 0.49 µM came out at 96.5%; the share remaining at 0.5 h, 0.49 µM was 107%; the share remaining at 40 min, 0.49 µM came out at 98.4%. Further, in data set [2] (male, human, microsomes), the fraction remaining at 50 min, 0.49 µM is 102% and the amount remaining at 1 h, 0.49 µM is 105%.
Regarding `Cc1c(C#N)cccc1-c1cc(-c2cn(Cc3cccc(C(N)=O)n3)nn2)nc(N)n1` [Compound 7i, 6-((4-(2-Amino-6-(3-cyano-2-methylphenyl)pyrimidin-4-yl)-1H-1,2,3-triazol-1-yl)methyl)picolinamide], in data set [1], the fraction remaining at 10 min, 0.49 µM was 74.9%; the share remaining at 20 min, 0.49 µM amounted to 72.8%; the amount remaining at 0.5 h, 0.49 µM was found to be 67.8%; the amount remaining at 40 min, 0.49 µM worked out at 61%. For the same molecule, in data set [1], the amount remaining at 50 min, 0.49 µM worked out at 53.8%; the fraction remaining at 1 h, 0.49 µM came out at 50.7%; the half-life at 0.49 µM turned out to be 1.12 h; the “CLint(liver) Rat” value is given as 1.08 mL/min/g. At human A2B AR (CHO cells expressing hA2B AR, mean ± SEM, read-out: cAMP IC50 hA2B AR), the half-inhibitory concentration (IC50) is 14.1 ± 2.05 nM. For the same molecule, the inhibition at 0.1 µM at human A2B AR (CHO-K1, mean ± SEM) came out at 103.3 ± 0.63%. Further, on human A2B AR (ratio of cAMP IC50 values vs AB928), the “fold more active than AB928 (cAMP IC50, A2B AR)” value came out at 1.8 fold. Further, the IC50 on human A2A AR amounted to 63.6 ± 13 nM. For the same molecule, the “metabolism on human liver microsomes (in words)” value in data set [2] is on record as “hardly metabolised on human liver microsomes”. For the same molecule, in data set [2] (human, microsomes), the “CLint(liver) Hum” value is recorded as 0.06 mL/min/g. For the same molecule, in data set [2] (male, human, microsomes), the half-life at 0.49 µM is 19.2 h; the amount remaining at 10 min, 0.49 µM worked out at 98%; the share remaining at 20 min, 0.49 µM was found to be 108%; the share remaining at 0.5 h, 0.49 µM turned out to be 116%. Also, in data set [2] (male, human, microsomes), the share remaining at 40 min, 0.49 µM stood at 101%; the amount remaining at 50 min, 0.49 µM came out at 95%; the amount remaining at 1 h, 0.49 µM is 98.8%.
